The subject of the experiment is phosphorylated p70S6K (Thr389). Kind of experiment: Phosphorylated p70S6K (Thr389) level in insulin-stimulated C3H10T1/2 cells (Western blot). Also noted: key to Phosphorylated p70S6K (Thr389) level, % vs. Vehicle: *: under detectable level. Particulars: for Phosphorylated p70S6K (Thr389) level, % vs. Vehicle: vehicle = 100%. The class given is cell-based, Mouse. How it is done: Mouse embryonic mesenchymal stem cells, C3H10T1/2 cells, (ATCC, USA, #CCL-226), were cultured in DMEM (low glucose […], Gibco), supplemented with 10% FBS and 2 mM L-Glutamine (Gibco). 2×10^5 cells /well were seeded in 6-well plate and grown to 80% confluency. Cells were treated with either rapamycin (Tocris, UK, #1292) at 100 nM, EGCG (TEAVIGO®, DSM Nutritional Product ltd. Switzerland) at 10 microM , resveratrol (DSM Nutritional Products Ltd. Switzerland) at 0.1, 1, 10 μM or combination of EGCG (10 microM) and resveratrol (0.1,1, 10 μM) for 30 min, then stimulated with insulin (Sigma, Switzerland) at 100 nM for 30 min. Cells were washed twice with PBS and harvested in 0.4 ml NETT buffer (0.1 M NaCl, 10 mM Tris-HCL (pH 7.6), 1 mM EDTA, 1% Triton X-100, pH 7.6 ). Cell lysates were sonicated and centrifuged at 14,000 rpm for 2 min. Protein concentration was determined using BCA assay (PIERCE, USA #23223). 10 microgram whole cell extracts were loaded on SDS-gel (10-20% Tricine gradient gel) and blotted on nitrocellulose membrane (0.2 μm pore, Invitrogen, #LC2000 ). Blot was incubated first with monoclonal antibody, phosphor-p70 S6 Kinase (Thr389)(1A5) mouse mAb (Cell signaling technology, #9206) at 1:2000 dilution, then with secondary antibody, goat anti-mouse IgG HRP (Santa Cruz, USA, #SC2055) at 1:10000. Protein load was control by measuring β-actin using anti mouse β-actin (Sigma, Switzerland, #A-5441). The signals were detected using ECL plus Western Blotting Detection System (Amersham Biosciences; RPN2132). Membrane was exposed to X-ray film for 30′ (Hyperfilm ECL; High performance chemiluminescence film, Amersham Biosciences; RPN1674 ) and films were scanned with ChemiGenius 2 machine (Syngene, UK). The signals were quantified by using GeneTools software (Syngene, UK). Signal of phosphorylated p70S6K was normalized to the protein load control β-actin, and vehicle was set up as 100%.

Setting [1] is: 10 μM single agent, insulin 100 nM.

Regarding `CO[C@H]1C[C@@H]2CC[C@@H](C)[C@@](O)(O2)C(=O)C(=O)N2CCCC[C@H]2C(=O)O[C@H]([C@H](C)C[C@@H]2CC[C@@H](O)[C@H](OC)C2)CC(=O)[C@H](C)/C=C(\C)[C@@H](O)[C@@H](OC)C(=O)[C@H](C)C[C@H](C)/C=C/C=C/C=C/1C` [Rapa, rapamycin, reference compound], for the setting “100 nM, 30 min pretreatment then insulin 100 nM 30 min, normalized to β-actin”, the “Phosphorylated p70S6K (Thr389) level, % vs. Vehicle” value is listed as “*”.
Consider `Oc1ccc(C=Cc2cc(O)cc(O)c2)cc1` [Resveratrol, resveratrol], for which the “Phosphorylated p70S6K (Thr389) level, % vs. Vehicle” value was found to be 95.23% (0.1 μM single agent, insulin 100 nM); 106.9157% (1 μM single agent, insulin 100 nM); 132.715% under setting [1]. For the setting “0.1, 1 and 10 microM”, the “effect on phosphorylated p70S6K (Thr389) amount (in words)” value is “no influence”.
With (−)-epigallocatechin gallate [EGCG], the “Phosphorylated p70S6K (Thr389) level, % vs. Vehicle” value under setting [1] came out at 117.20%. For the same compound, the “effect on phosphorylated p70S6K (Thr389) amount (in words)” value (10 microM) is reported as “little effect”.

(Values after patent US20080262081A1, “Novel Use of Nutraceutical Compositions Comprising Resveratrol” (priority 2005, published 2008).)
